Results published in US20080132539A1, “Hydroxamic Acid Derivative And Age Generation Inhibitor Containing The Derivative” (priority 2003, published 2008).

System: Maillard reaction (lysozyme / fructose, dimer formation)
Experiment: Maillard reaction-inhibiting effects (lysozyme dimer formation with fructose, SDS-PAGE densitometry)
Assay type: biochemical
Settings: 10 mg/mL lysozyme, 200 mM fructose, pH 7.4, 37° C., 4 days, dimer formation inhibition rate
Method: This Example examined Maillard reaction-inhibiting effects using, as test compounds, the compounds produced in the above-described Examples and the commercially available substances arginine hydroxamate (Compound No. 111), tyrosine hydroxamate (Compound No. 112), and tryptophan hydroxamate (Compound No. 113). More specifically, 10 mg/mL lysozyme, 200 mM fructose, and each of the above-described test compounds dissolved in a 0.4 mM sodium phosphate buffer (pH 7.4) so as to provide a concentrations of 0.1, 0.3, 1, or 3 mM were incubated at 37° C. for 4 days. After the incubation, the samples were subjected to SDS-PAGE, stained with Coomassie Brilliant Blue R-250, and quantitated for the formed dimmers using a densitometer. The Maillard reaction-inhibiting activity was defined as the dimmer formation inhibition rate of a test compound calculated on the basis that the amount of dimmer is 100% in the absence of the test compound, using, as blank, the amount of dimer in the absence of fructose and the test compound.

[1] = test compound concentration 0.1 mM
[2] = test compound concentration 0.3 mM
[3] = test compound concentration 1 mM
[4] = test compound concentration 3 mM

| SMILES | Maillard reaction-inhibiting activity (%) [1] | Maillard reaction-inhibiting activity (%) [2] | Maillard reaction-inhibiting activity (%) [3] | Maillard reaction-inhibiting activity (%) [4] |
| --- | --- | --- | --- | --- |
| CC(C)(C)Cn1c(CC[C@H](N)C(=O)NO)nc2ccccc21 [Compound No. 71, (S)-2-amino-N-hydroxy-4-[1-(2,2-dimethylpropyl)-1H-benzimidazol-2-yl]butyramide] | 71% | 97% | 98% | 99% |
| CC(C)Cn1c(CC[C@H](N)C(=O)NO)nc2ccccc21 [Compound No. 72, (S)-2-amino-N-hydroxy-4-(1-isobutyl-1H-benzimidazol-2-yl)butyramide] | 53% | 94% | 100% | 101% |
| N[C@@H](CCc1nc2ccccc2n1Cc1ccc(F)cc1)C(=O)NO [Compound No. 73, (S)-2-amino-N-hydroxy-4-[1-(4-fluorobenzyl)-1H-benzimidazol-2-yl]butyramide] | 94% | 98% | 98% | 100% |
| CC(C)(C)c1ccc(Cn2c(CC[C@H](N)C(=O)NO)nc3ccccc32)cc1 [Compound No. 74, (S)-2-amino-N-hydroxy-4-[1-(4-t-butylbenzyl)-1H-benzimidazol-2-yl]butyramide] | 98% | 99% | 101% | 100% |
| N[C@@H](CCc1nc2ccccc2n1C1CCCCC1)C(=O)NO [Compound No. 75, (S)-2-amino-N-hydroxy-4-(1-cyclohexyl-1H-benzimidazol-2-yl)butyramide] | 82% | 100% | 100% | 100% |
| N[C@@H](CCc1nc2ccccc2n1C1CCOCC1)C(=O)NO [Compound No. 76, (S)-2-amino-N-hydroxy-4-[1-(tetrahydropyran-4-yl)-1H-benzimidazol-2-yl]butyramide] | 13% | 65% | 95% | 98% |
| Cc1cc2nc(CC[C@H](N)C(=O)NO)n(Cc3ccc(C(C)(C)C)cc3)c2cc1C [Compound No. 85, (S)-2-amino-4-[1-(4-t-butylbenzyl)-5,6-dimethyl-1H-benzimidazol-2-yl]-N-hydroxybutyramide] | 99% | 100% | 98% | 98% |
| CCCn1c(CC[C@H](N)C(=O)NO)nc2cc(C)c(C)cc21 [Compound No. 94, (S)-2-amino-4-(5,6-dimethyl-1-propyl-1H-benzimidazol-2-yl)-N-hydroxybutyramide] | 12% | 83% | 100% | 102% |
| CCCCCn1c(CC[C@H](N)C(=O)NO)nc2cc(Cl)c(Cl)cc21 [Compound No. 96, (S)-2-amino-4-(5,6-dichloro-1-pentyl-1H-benzimidazol-2-yl)-N-hydroxybutyramide] | 99% | 103% | 104% | 104% |
| CCCn1c(CC[C@H](NCC2CCCCC2)C(=O)NO)nc2ccccc21 [Compound No. 97, (S)-2-(cyclohexylmethyl-amino)-4-(1-propyl-1H-benzimidazol-2-yl)-N-hydroxybutyramide] | 96% | 98% | 98% | 98% |
| CC(C)(C)c1ccc(COc2ccc(C[C@H](N)C(=O)NO)cc2)cc1 [Compound No. 99, (S)-2-amino-3-[4-(4-t-butylbenzyloxy)phenyl]-N-hydroxypropionamide] | 95% | 95% | 99% | 101% |
| N[C@@H](Cc1ccc(OCc2ccccc2-c2ccccc2)cc1)C(=O)NO [Compound No. 100, (S)-2-amino-3-[4-(2-phenylbenzyloxy)phenyl]-N-hydroxypropionamide] | 93% | 96% | 96% | 97% |
| N[C@@H](Cc1ccc(OCc2ccc([N+](=O)[O-])cc2)cc1)C(=O)NO [Compound No. 101, (S)-2-amino-3-[4-(4-nitrobenzyloxy)phenyl]-N-hydroxypropionamide] | 102% | 102% | 102% | 98% |
| N[C@@H](Cc1ccc(OCc2ccc(F)cc2F)cc1)C(=O)NO [Compound No. 102, (S)-2-amino-3-[4-(2,4-difluorobenzyloxy)phenyl]-N-hydroxypropionamide] | 78% | 88% | 94% | 95% |
| N#Cc1ccc(COc2ccc(C[C@H](N)C(=O)NO)cc2)cc1 [Compound No. 103, (S)-2-amino-3-[4-(4-cyanobenzyloxy)phenyl]-N-hydroxypropionamide] | 89% | 95% | 100% | 97% |
| CCCCCn1cc(C[C@H](N)C(=O)NO)c2ccccc21 [Compound No. 109, (S)-2-amino-3-(1-pentyl-1H-indol-3-yl)-N-hydroxypropionamide] | 104% | 105% | 104% | 103% |
| CCCCCn1cc(C[C@@H](N)C(=O)NO)c2ccccc21 [Compound No. 110, (R)-2-amino-3-(1-pentyl-1H-indol-3-yl)-N-hydroxypropionamide] | 96% | 103% | 101% | 101% |
